The results in this text go back to patent US8889192B2, “Magnetic nanomedicine for inhibiting/treating human prostate cancer” (priority 2011, dated 2014).

A short description of data set [1]: physchem.
Data set [2] relates to α-tubulin. The data set can be described thus: Content of α-tubulin in CWR22R cells, Western method. The following applies: 10 μM, 24 hours, no magnetic field.
For data set [3], the system named is human prostate cancer cells CWR22R. The data set can be described thus: Growth of CWR22R cells, XTT cell counting. Type of data set: cell-based. The following applies: 10 μM, 48 hours, no magnetic field. Here is the method:
Cell cultivation: Place 150 μL of a mixture liquid containing 10000 human prostate cancer cells CW[…] into every well of a 96-well culture plate. […] Agent addition: 24 hours later, separately mix […] magnetic nanocomposite (600 μg/mL), Taxol, and […]/Taxol magnetic nanomedicine with a RPMI1640 medium to form mixed solutions. […] Cell counting: Remove RPMI1640 and add 120 μL of an XTT reaction liquid to the wells.
On the technique in general: Tetrazolium assays rely on reduction of a dye to a coloured formazan, in cell work by metabolically active cells.

Data set [4] has as its system tubulin protein. The data set can be described thus: Stability analysis: residual activity by tubulin protein assay after storage. Particulars: stored at 25° C. for 14 days.
Data set [5] has as its system human prostate cancer cells PC3. The data set can be described thus: Growth of PC3 cells, XTT cell counting. The format is cell-based. Particulars: 10 μM, 48 hours, no magnetic field. Here is the method: Cell cultivation: Place 150 μL of a mixture liquid containing 10000 human prostate cancer cells PC3 into every well of a 96-well culture plate. […] Agent addition: 24 hours later, separately mix […] magnetic nanocomposite (600 μg/mL), Taxol, and […]/Taxol magnetic nanomedicine with a RPMI1640 medium to form mixed solutions. […] Cell counting: […]

Data set [6] deals with tubulin protein.

Regarding `CC(=O)O[C@H]1C(=O)[C@@]2(C)[C@H]([C@H](OC(=O)c3ccccc3)[C@]3(O)C[C@H](OC(=O)[C@H](O)[C@@H](NC(=O)c4ccccc4)c4ccccc4)C(C)=C1C3(C)C)[C@]1(OC(C)=O)CO[C@@H]1C[C@@H]2O` [Taxol], in data set [1], the half-life – broadly, the time needed for the level to fall by half in the phase considered – was 19 h. In addition, in data set [2], the α-tubulin inhibition ratio was determined as 52%. The CWR22R growth-inhibition ratio in data set [3] was determined as 41%. Moreover, the activity after storage entry in data set [4] is on record as “has lost its activity”. Also, the PC3 growth-inhibition ratio in data set [5] was found to be 25%. Besides, the half life in data set [6] turned out to be 32 h.
